Data: patent US20240043427A1 (Gilead Sciences, Inc., priority 2020, published 2024)
Several values for one entry are separate records, joined by “and”; a condition that tells them apart may be missing. Equal entries are not always repeated.

What was measured:
CD73 [1] = target: T1, CD73 (Homo sapiens (Human), UniProt P21589); experiment: CD73 Biochemical IC50 Assay; details: CD73 0.3 nM, AMP 15 uM, 25 mM Tris pH 7.4, 5 mM MgCl2
Method: CD73 Biochemical IC50 Assay
Compound serial dilutions were pre-spotted into Thermo Nunc assay plate. 50 μL CD73 enzyme buffer (CD73 purchased from R&D system=0.6 nM, 25 mM Tris, pH 7.4, 5 mM MgCl2) was added into the assay plate and incubated for 15 mins. […] The samples were run using Rapid fire.

CD73 [2] = target: T1, CD73; experiment: MDA-MB-231 Cell Based CD73 Activity Assay; details: MDA-MB-231-GFP cells, RPMI medium with 10% human plasma, 200 uM AMP
Method: MDA-MB-231 Cell Based CD73 Activity Assay
MDA-MB-231-GFP cells were seeded in 384-well plates (Greiner 781946) at a density of 10000 cells per well in 50 μL of RPMI medium with 10% HP (human plasma). Cells were plated into assay plate with compounds pre-spotted, for an overnight compound treatment. 50 μL of 400 μM AMP (final concentration 200 μM) using a Bio-tek dispenser. Plates were incubated for 100 mins. […] The samples were run using Rapid fire.

T1 sequence (P21589 27-574): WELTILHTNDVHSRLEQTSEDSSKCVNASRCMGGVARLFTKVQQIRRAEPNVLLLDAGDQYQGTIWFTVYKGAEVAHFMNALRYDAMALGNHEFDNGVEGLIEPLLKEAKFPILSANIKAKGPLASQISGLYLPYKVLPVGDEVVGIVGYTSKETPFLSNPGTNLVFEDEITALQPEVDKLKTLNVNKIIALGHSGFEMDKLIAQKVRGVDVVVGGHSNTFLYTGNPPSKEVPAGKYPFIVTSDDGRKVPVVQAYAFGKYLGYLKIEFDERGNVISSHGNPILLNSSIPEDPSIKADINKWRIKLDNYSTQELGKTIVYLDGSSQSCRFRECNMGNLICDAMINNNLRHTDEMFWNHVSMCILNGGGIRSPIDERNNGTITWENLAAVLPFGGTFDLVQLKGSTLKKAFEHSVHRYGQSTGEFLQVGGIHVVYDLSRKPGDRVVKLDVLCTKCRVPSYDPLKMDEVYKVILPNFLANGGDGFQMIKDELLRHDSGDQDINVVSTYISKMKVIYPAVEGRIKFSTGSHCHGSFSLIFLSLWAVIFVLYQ

Row | Compound | IC50 (CD73 [1]) | EC50 (CD73 [2])
1 | O=c1[nH]cc(-c2cc(N3CCOCC3)c3nccn3n2)c(=O)[nH]1 [Example 10, 5-(8-morpholinoimidazo[1,2-b]pyridazin-6-yl)-1H-pyrimidine-2,4-dione] | 980 nM | 473 nM
2 | O=c1[nH]cc(-c2cc(NCc3ccccc3)c3nccn3n2)c(=O)[nH]1 [Example 12, 5-(8-(benzylamino)imidazo[1,2-b]pyridazin-6-yl)pyrimidine-2,4(1H,3H)-dione] | 479 nM and 653 nM | 508 nM and 689 nM
3 | CN(Cc1ccccc1)c1cc(-c2c[nH]c(=O)[nH]c2=O)nn2ccnc12 [Example 13, 5-(8-(benzyl(methyl)amino)imidazo[1,2-b]pyridazin-6-yl)pyrimidine-2,4(1H,3H)-dione] | 368 nM and 607 nM | 692 nM and 896 nM
4 | CC(C)c1cc(-c2c[nH]c(=O)[nH]c2=O)nn2cc(C(F)(F)F)nc12 [Example 15, 5-(8-isopropyl-2-(trifluoromethyl)imidazo[1,2-b]pyridazin-6-yl)pyrimidine-2,4(1H,3H)-dione] | 2350 nM | 920 nM
5 | O=c1[nH]cc(-c2cc(Cc3ccccc3)c3nccn3n2)c(=O)[nH]1 [Example 17, 5-(8-benzylimidazo[1,2-b]pyridazin-6-yl)-1H-pyrimidine-2,4-dione] | > 2500 nM | 3670 nM
6 | O=c1[nH]cc(-c2cc(C3(C(F)(F)F)CC3)c3nccn3n2)c(=O)[nH]1 [Example 18, 5-[8-[1-(trifluoromethyl)cyclopropyl]imidazo[1,2-b]pyridazin-6-yl]-1H-pyrimidine-2,4-dione] | > 2500 nM | 20400 nM
7 | O=c1[nH]cc(-c2cc(C3(C(F)(F)F)CC3)c3nc(C4(C(F)(F)F)CC4)cn3n2)c(=O)[nH]1 [Example 19, 5-[2,8-bis[1-(trifluoromethyl)cyclopropyl]imidazo[1,2-b]pyridazin-6-yl]-1H-pyrimidine-2,4-dione] | > 2500 nM | > 25000 nM
8 | O=c1[nH]cc(-c2cc(CS(=O)(=O)c3ccccc3)c3nccn3n2)c(=O)[nH]1 [Example 20, 5-[8-(benzenesulfonylmethyl)imidazo[1,2-b]pyridazin-6-yl]-1H-pyrimidine-2,4-dione] | > 2500 nM | > 25000 nM
9 | O=c1[nH]cc(-c2cc(CS(=O)(=O)c3ccccc3)c3nc(CS(=O)(=O)c4ccccc4)cn3n2)c(=O)[nH]1 [Example 21, 5-[2,8-bis(benzenesulfonylmethyl)imidazo[1,2-b]pyridazin-6-yl]-1H-pyrimidine-2,4-dione] | > 2500 nM | > 25000 nM
10 | O=c1[nH]cc(-c2ccc3nccn3n2)c(=O)[nH]1 [Example 23, 5-(imidazo[1,2-b]pyridazin-6-yl)pyrimidine-2,4(1H,3H)-dione] | > 2500 nM | > 25000 nM
11 | O=c1[nH]cc(-c2cc(OC3CC3)c3nccn3n2)c(=O)[nH]1 [Example 24, 5-(8-cyclopropoxyimidazo[1,2-b]pyridazin-6-yl)pyrimidine-2,4(1H,3H)-dione] | 1260 nM | 1230 nM
12 | CC(C)Oc1cc(-c2c[nH]c(=O)[nH]c2=O)nn2ccnc12 [Example 25, 5-(8-isopropoxyimidazo[1,2-b]pyridazin-6-yl)pyrimidine-2,4(1H,3H)-dione] | 657 nM and 557 nM | 361 nM and 429 nM
13 | Cc1nc2c(C3CCC(F)(F)CC3)cc(-c3c[nH]c(=O)[nH]c3=O)nn2n1 [Example 55, 5-(8-(4,4-difluorocyclohexyl)-2-methyl-[1,2,4]triazolo[1,5-b]pyridazin-6-yl)pyrimidine-2,4(1H,3H)-dione] | > 2500 nM | 872 nM
14 | N#Cc1cnc2c(C3CCC(F)(F)CC3)cc(-c3c[nH]c(=O)[nH]c3=O)nn12 [Example 56, 8-(4,4-difluorocyclohexyl)-6-(2,4-dioxo-1,2,3,4-tetrahydropyrimidin-5-yl)imidazo[1,2-b]pyridazine-3-carbonitrile] | > 2500 nM | 4460 nM
15 | Cc1cnc2c(C3CCC(F)(F)CC3)cc(-c3c[nH]c(=O)[nH]c3=O)nn12 [Example 57, 5-(8-(4,4-difluorocyclohexyl)-3-methylimidazo[1,2-b]pyridazin-6-yl)pyrimidine-2,4(1H,3H)-dione] | > 2500 nM | 3300 nM
16 | O=c1[nH]cc(-c2cc(COCc3ccccc3)c3nccn3n2)c(=O)[nH]1 [Example 58, 5-(8-((benzyloxy)methyl)imidazo[1,2-b]pyridazin-6-yl)pyrimidine-2,4(1H,3H)-dione] | 548 nM | 704 nM
17 | O=c1[nH]cc(-c2cc(N3CCC3c3ccccc3)c3nccn3n2)c(=O)[nH]1 (stereo not shown) [Example 66, 5-(8-(2-phenylazetidin-1-yl)imidazo[1,2-b]pyridazin-6-yl)pyrimidine-2,4(1H,3H)-dione] | > 2500 nM | 4470 nM
18 | O=c1[nH]cc(-c2cc(-c3ccc(NCC4CC4)cc3)c3nccn3n2)c(=O)[nH]1 [Example 71, 5-[8-[4-(cyclopropylmethylamino)phenyl]imidazo[1,2-b]pyridazin-6-yl]-1H-pyrimidine-2,4-dione] | 1490 nM | 649 nM
19 | O=c1[nH]cc(-c2cc(-n3cccn3)c3nccn3n2)c(=O)[nH]1 [Example 78, 5-(8-pyrazol-1-ylimidazo[1,2-b]pyridazin-6-yl)-1H-pyrimidine-2,4-dione] | 1920 nM | 1230 nM

More lines, now with the values ahead:

Row | IC50 (CD73 [1]) | EC50 (CD73 [2]) | Compound
20 | 507 nM | 413 nM | Cc1cn2nc(-c3c[nH]c(=O)[nH]c3=O)cc(C3CC3)c2n1 [Example 1, 5-(8-cyclopropyl-2-methyl-imidazo[1,2-b]pyridazin-6-yl)-1H-pyrimidine-2,4-dione]
21 | 32.4 nM | 53.3 nM | O=c1[nH]cc(-c2cc(C3CC3)c3nc(-c4ccccc4)cn3n2)c(=O)[nH]1 [Example 2, 5-(8-cyclopropyl-2-phenyl-imidazo[1,2-b]pyridazin-6-yl)-1H-pyrimidine-2,4-dione]
22 | 235 nM | 195 nM | CCOC(=O)c1cn2nc(-c3c[nH]c(=O)[nH]c3=O)cc(C3CC3)c2n1 [Example 3, Ethyl 8-cyclopropyl-6-(2,4-dioxo-1H-pyrimidin-5-yl)imidazo[1,2-b]pyridazine-2-carboxylate]
23 | 110 nM | 74.1 nM | O=c1[nH]cc(-c2cc(-n3ccnc3)c3nccn3n2)c(=O)[nH]1 [Example 11, 5-(8-imidazol-1-ylimidazo[1,2-b]pyridazin-6-yl)-1H-pyrimidine-2,4-dione]
24 | 301 nM | 79.2 nM | O=c1[nH]cc(-c2cc(C3CCC(F)(F)CC3)c3nccn3n2)c(=O)[nH]1 [Example 14, 5-(8-(4,4-difluorocyclohexyl)imidazo[1,2-b]pyridazin-6-yl)pyrimidine-2,4(1H,3H)-dione]
25 | 362 nM | 333 nM | CC(C)c1cc(-c2c[nH]c(=O)[nH]c2=O)nn2cnnc12 [Example 16, 5-(8-isopropyl-[1,2,4]triazolo[4,3-b]pyridazin-6-yl)pyrimidine-2,4(1H,3H)-dione]
26 | 161 nM | 184 nM | O=c1[nH]cc(-c2cc(OCc3ccccc3)c3nccn3n2)c(=O)[nH]1 [Example 26]
27 | 90.4 nM | 145 nM | O=c1[nH]cc(-c2cc(C3CC3)n3nccc3n2)c(=O)[nH]1 [Example 27, 5-(7-cyclopropylpyrazolo[1,5-a]pyrimidin-5-yl)pyrimidine-2,4(1H,3H)-dione]
28 | 65 nM | 71.7 nM | O=c1[nH]cc(-c2cc(N3CC(c4ccccc4)C3)c3nccn3n2)c(=O)[nH]1 [Example 59, 5-(8-(3-phenylazetidin-1-yl)imidazo[1,2-b]pyridazin-6-yl)pyrimidine-2,4(1H,3H)-dione]
29 | 55.4 nM | 47.8 nM | O=c1[nH]cc(-c2cc(C3CC3)c3ncc(F)n3n2)c(=O)[nH]1 [Example 69, 5-(8-cyclopropyl-3-fluoro-imidazo[1,2-b]pyridazin-6-yl)-1H-pyrimidine-2,4-dione]
30 | 126 nM | 136 nM | O=c1[nH]cc(-c2cc(C3CC3)c3nc(C4CC4)cn3n2)c(=O)[nH]1 [Example 75, 5-(2,8-dicyclopropylimidazo[1,2-b]pyridazin-6-yl)-1H-pyrimidine-2,4-dione]
31 | 9.16 nM | 2.93 nM | O=c1[nH]cc(-c2cc([C@H]3C[C@@H]3c3ccc(F)cc3F)c3ncc(F)n3n2)c(=O)[nH]1 [Example 88, 5-[8-[(1S,2S)-2-(2,4-difluorophenyl)cyclopropyl]-3-fluoro-imidazo[1,2-b]pyridazin-6-yl]-1H-pyrimidine-2,4-dione]
32 | 211 nM | 248 nM | CC1(C)CCN(c2cc(-c3c[nH]c(=O)[nH]c3=O)nn3ccnc23)CC1 [Example 89, 5-[8-(4,4-dimethyl-1-piperidyl)imidazo[1,2-b]pyridazin-6-yl]-1H-pyrimidine-2,4-dione]
33 | 9.91 nM | 1.79 nM | O=c1[nH]cc(-c2cc([C@H]3C[C@@H]3c3ccc(F)c(F)c3)c3ncc(F)n3n2)c(=O)[nH]1 [Example 90, 5-[8-[(1S,2S)-2-(3,4-difluorophenyl)cyclopropyl]-3-fluoro-imidazo[1,2-b]pyridazin-6-yl]-1H-pyrimidine-2,4-dione]
34 | 104 nM | 62.2 nM | CC1(C)CCN(c2cc(-c3c[nH]c(=O)[nH]c3=O)nc3ccnn23)C1 [Example 91, 5-(7-(3,3-dimethylpyrrolidin-1-yl)pyrazolo[1,5-a]pyrimidin-5-yl)pyrimidine-2,4(1H,3H)-dione]
35 | 132 nM | 76 nM | O=c1[nH]cc(-c2cc(N3CC4CCC(C4)C3)c3nccn3n2)c(=O)[nH]1 [Example 94, 5-(8-(3-azabicyclo[3.2.1]octan-3-yl)imidazo[1,2-b]pyridazin-6-yl)pyrimidine-2,4(1H,3H)-dione]
